According to patent US11396517B1, “Exo-aza spiro inhibitors of menin-MLL interaction” (Janssen Pharmaceutica NV, priority 2017, dated 2022):
Like-named read-outs stand apart in the source and are kept apart here.

Tests used:
MOLM14 = test: Proliferation assay B (spheroid assay) MOLM14; format: cell-based, human; settings: MOLM14 cells, confluence at day 8, absolute IC50, read-out: (3b) Spheroid assay MOLM14 (IC50(μM)) Assay B
How it was run: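 IC50 derived from % effect on day-8 imaged confluence, scaled between DMSO-treated cells (high) and 1 μM staurosporine (low), using a variable-slope fit constrained 0-100%. Cells seeded as spheroids in ultra-low-attachment plates and exposed to compound for 8 days, 0.3% DMSO.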

menin = target: T1, menin (Homo sapiens, UniProt O00255, T541A); test: Menin/MLL homogenous time-resolved fluorescence (HTRF) assay; format: binding; settings: location 2; read-out: (2) location 2 Menin HTRF assay (IC50 (nM))
T1 construct: Menin (a.a. 1-610-6×his tag)
T1 sequence (O00255 with tags, fused parts or gaps T541A): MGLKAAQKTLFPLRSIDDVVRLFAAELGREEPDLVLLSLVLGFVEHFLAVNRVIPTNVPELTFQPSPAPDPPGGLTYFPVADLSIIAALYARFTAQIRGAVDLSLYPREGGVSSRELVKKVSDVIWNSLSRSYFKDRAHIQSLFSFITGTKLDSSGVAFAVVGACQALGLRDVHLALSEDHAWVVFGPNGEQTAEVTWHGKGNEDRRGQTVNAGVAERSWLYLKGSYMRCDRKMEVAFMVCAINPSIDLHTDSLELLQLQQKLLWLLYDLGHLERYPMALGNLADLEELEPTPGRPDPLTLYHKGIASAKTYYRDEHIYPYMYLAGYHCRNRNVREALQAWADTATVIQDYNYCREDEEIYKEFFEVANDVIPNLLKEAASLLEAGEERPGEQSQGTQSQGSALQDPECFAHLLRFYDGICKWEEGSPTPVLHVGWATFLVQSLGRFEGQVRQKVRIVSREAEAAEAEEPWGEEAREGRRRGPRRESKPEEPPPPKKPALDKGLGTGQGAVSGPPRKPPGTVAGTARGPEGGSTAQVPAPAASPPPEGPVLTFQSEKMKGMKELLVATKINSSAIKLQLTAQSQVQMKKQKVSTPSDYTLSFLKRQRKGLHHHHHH
How it was run: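 Displacement of 75 nM FITC-MBM1 from terbium-cryptate-labeled His-tagged menin 1-610 ([…]) was read as the 520/490 nm HTRF ratio. Compound (11-point, 3-fold series) got 5 min with menin before peptide, then 15 min at ambient; 0.5% DMSO, Tris pH 7.5.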

MV-4-11 = test: Proliferation assay B (spheroid assay) MV-4-11; format: cell-based, human; settings: MV-4-11 cells, confluence at day 8, absolute IC50, read-out: (3b) Spheroid assay MV-4--11 (IC50(μM)) Assay B
Procedure: 3b) Proliferation Assay B
The anti-proliferative effect of menin/MLL protein/protein interaction inhibitor test compounds was assessed in human leukemia cell lines. The cell lines MV-4-11 and MOLM14 harbor MILL translocations and express the MILL fusion proteins MLL-AF4 and MLL-AF9, respectively, as well as the wildtype protein from the second allele. […] K562 was used as a control cell line containing two MLL wildtype alleles in order to exclude compounds that display general cytotoxic effects.
MV-4-11 and MOLM14 were cultured in RPMI-1640 (Sigma Aldrich) supplemented with 10% fetal bovine serum (HyClone), 2 mM L-glutamine (Sigma Aldrich) and 50 μg/ml gentamycin (Gibco). K562 were propagated in RPMI-1640 (Sigma Aldrich) supplemented with 20% fetal bovine serum (HyClone), 2 mM L-glutamine (Sigma Aldrich) and 50 μg/ml gentamycin (Gibco).
In order to assess the anti-proliferative effects, 1,500 MV-4-11, 300 MOLM14 cells or 750 K562 cells were seeded in 200 μl media per well in 96-well round bottom, ultra-low attachment plates (Costar, catalogue number 7007). Cell seeding numbers were chosen based on growth curves to ensure linear growth throughout the experiment. Test compounds were added at different concentrations and the DMSO content was normalized to 0.3%. Cells were incubated for 8 d at 37° C. and 5% CO2. Spheroid like growth was measured in real-time by live-cell imaging (IncuCyteZOOM, Essenbio, 4× objective) acquiring images at day 8. Confluence (%) as a measure of spheroid size was determined using an integrated analysis tool.
In order to determine the effect of the test compounds over time, the confluence in each well as a measure of spheroid size, was calculated. Confluence […] at the beginning of the experiment (t=0) was used as baseline for the calculation.
Absolute IC50 values were calculated as percent change in confluence as follows:
LC=Low Control: cells treated with 1 μM of the cytotoxic agent staurosporin
HC=High Control: Mean confluence (%) (DMSO treated cells) % Effect=100−(100*(Sample−LC)/(HC−LC))
To determine the IC50 a curve is fitted to the plot of % Effect vs Log 10 compound concentration using a sigmoidal fit with a variable slope and fixing the maximum to 100% and the minimum to 0%.

SMILES | IC50 (MOLM14; Homo sapiens, MOLM-14, 192 h) | IC50 (menin) | IC50 (MV-4-11; Homo sapiens, MV4-11, 192 h) | IC50 (MOLM14) | IC50 (MV-4-11)
CN1CCC(Nc2cc(NC3CC4(CCN(c5ncnc6sc(CC(F)(F)F)cc56)C4)C3)ccc2C#N)CC1 (stereo not drawn) [Compound 82] | 0.93 µM | 73.6 nM | 1.14 µM | – | –
CN1CC=C(c2cc(NC3CC4(CCN(c5ncnc6sc(CC(F)(F)F)cc56)C4)C3)ccc2C(C)(C#N)C#N)CC1 (single isomer, unassigned) [Compound 247] | – | 30.2 nM | – | 0.71 µM | 0.97 µM
FC(F)(F)Cc1cc2c(N3CCC4(CC(Nc5ccccn5)C4)C3)ncnc2s1 (stereo not drawn) [Compound 151] | 2.48 µM | 31 nM | 2.03 µM | – | –
FC(F)(F)Cc1cc2c(N3CC4(CCC(NC5(c6ccccc6)CC5)C4)C3)ncnc2s1 (stereo not drawn) [Compound 282] | > 3.75 µM | 92.8 nM | > 3.75 µM | – | –
CC(C)(NC1CCC2(C1)CN(c1ncnc3sc(CC(F)(F)F)cc13)C2)c1ccccc1 (racemic) [Compound 276] | > 3.75 µM | 97.3 nM | 2.43 µM | – | –
CN1CCC(c2cc(NC3CC4(CCN(c5ncnc6sc(CC(F)(F)F)cc56)C4)C3)ccc2C#N)CC1 (single isomer, unassigned) [Compound 79] | 0.59 µM | 14.2 nM | 0.17 µM | – | –
O=c1[nH]c2cc(N[C@H]3CCC4(C3)CN(c3ncnc5sc(CC(F)(F)F)cc35)C4)ccc2o1 (single isomer, unassigned) [Compound 287] | > 3.75 µM | 22.8 nM | 3.37 µM | – | –
CNc1nc(N2CCC3(CC(Nc4ccc(C#N)cn4)C3)C2)c2cc(CC(F)(F)F)sc2n1 (mixture of isomers) [Compound 271] | > 3.75 µM | 22.5 nM | > 3.75 µM | – | –
O=c1[nH]c2ccc(NC3CCC4(C3)CN(c3ncnc5sc(CC(F)(F)F)cc35)C4)cc2o1 (stereo not drawn) [Compound 295] | > 3.75 µM | 97.7 nM | > 3.75 µM | – | –
Cn1c(=O)[nH]c2ccc(CN[C@H]3CCC4(C3)CN(c3ncnc5sc(CC(F)(F)F)cc35)C4)cc21 (stereo in doubt) [Compound 111] | 3.06 µM | 65 nM | 0.62 µM | – | –
COc1nc(N2CC3(CC[C@H](NCc4cccc(-c5cc[nH]n5)c4)C3)C2)c2cc(CC(F)(F)F)sc2n1 (stereo in doubt) [Compound 116] | 2.32 µM | 30.6 nM | 2.06 µM | – | –
FC(F)(F)Cc1cc2c(N3CCC4(CC(Nc5cccnc5)C4)C3)ncnc2s1 (single isomer, unassigned) [Compound 153] | > 3.75 µM | 34.7 nM | 2.47 µM | – | –
COc1nc(N2CCC3(CC(Nc4ccccc4)C3)C2)c2cc(CC(F)(F)F)sc2n1 (single isomer, unassigned) [Compound 267] | > 3.75 µM | 98.2 nM | > 3.75 µM | – | –
O=c1[nH]c2ccc(NC3CC4(CCN(c5ncnc6sc(CC(F)(F)F)cc56)C4)C3)cc2[nH]1 (mixture of isomers) [Compound 319] | > 3.75 µM | 17.4 nM | > 3.75 µM | – | –
O=c1[nH]c2ccc(NC3CCC4(C3)CN(c3ncnc5sc(CC(F)(F)F)cc35)C4)cc2[nH]1 (stereo not drawn) [Compound 298] | > 3.75 µM | 54.3 nM | > 3.75 µM | – | –

Other lines, results leading:

IC50 (MOLM14; Homo sapiens, MOLM-14, 192 h) | IC50 (menin) | IC50 (MV-4-11; Homo sapiens, MV4-11, 192 h) | IC50 (MOLM14) | IC50 (MV-4-11) | SMILES
– | 13 nM | – | 2.35 µM | 0.67 µM | FC(F)(F)Cc1cc2c(N3CCC4(CC(Nc5ccncc5)C4)C3)ncnc2s1 (stereo not drawn) [Compound 154]
0.56 µM | 2.3 nM | 0.06 µM | – | – | O=C(NCCO)c1ccc(NC2CC3(CCN(c4ncnc5sc(CC(F)(F)F)cc45)C3)C2)cc1 (single isomer, unassigned) [Compound 84]
0.5 µM | 2.8 nM | 0.23 µM | – | – | CNC(=O)c1ccc(NC2CC3(CCN(c4ncnc5sc(CC(F)(F)F)cc45)C3)C2)nc1 (single isomer, unassigned) [Compound 72]
– | 1.3 nM | 0.05 µM | 0.46 µM | – | CN(C)CCNC(=O)c1ccc(NC2CC3(CCN(c4ncnc5sc(CC(F)(F)F)cc45)C3)C2)cc1 (single isomer, unassigned) [Compound 75]
0.14 µM | 10.3 nM | 0.12 µM | – | – | O=C(c1ccc(NC2CC3(CCN(c4ncnc5sc(CC(F)(F)F)cc45)C3)C2)cc1)N1CCOCC1 (mixture of isomers) [Compound 333]
> 3.75 µM | 68.7 nM | > 3.75 µM | – | – | COC[C@@H]1CN(C(=O)c2ccc(NC3CC4(CCN(c5ncnc6sc(CC(F)(F)F)cc56)C4)C3)cc2)CCO1 (single isomer, unassigned) [Compound 410]
– | 5.2 nM | – | 1.55 µM | 0.46 µM | O=C(c1ccc(NC2CC3(CCN(c4ncnc5sc(CC(F)(F)F)cc45)C3)C2)cc1)N1CCOCC1 (single isomer, unassigned) [Compound 335]
– | 256 nM | – | > 3.75 µM | > 3.75 µM | O=C(c1ccc(NC2CC3(CCN(c4ncnc5sc(CC(F)(F)F)cc45)C3)C2)cc1)N1CCOCC1 (single isomer, unassigned) [Compound 334]
> 3.75 µM | 4.1 nM | 1.41 µM | – | – | CNC(=O)c1ccc(NC2CCC3(CCN(c4ncnc5sc(CC(F)(F)F)cc45)C3)C2)cc1 (stereo not drawn) [Compound 133]
1.97 µM | 12.2 nM | 1.09 µM | – | – | N#Cc1ccc(NC2CC3(CCN(c4ncnc5sc(CC(F)(F)F)cc45)C3)C2)cc1 (mixture of isomers) [Compound 164]
0.62 µM | 1 nM | 0.14 µM | – | – | CNC(=O)c1ccc(NC2CC3(CCN(c4ncnc5sc(CC(F)(F)F)cc45)C3)C2)c(F)c1 (single isomer, unassigned) [Compound 67]
– | 2.8 nM | 0.17 µM | 1.5 µM | – | CN(C)CCNC(=O)c1ccc(NC2CC3(CCN(c4ncnc5sc(CC(F)(F)F)cc45)C3)C2)nc1 (single isomer, unassigned) [Compound 254]
> 3.75 µM | 77.6 nM | > 3.75 µM | – | – | N#Cc1cccc(NC2CC3(CCN(c4ncnc5sc(CC(F)(F)F)cc45)C3)C2)c1 (mixture of isomers) [Compound 163]
1.21 µM | 2.5 nM | 0.3 µM | – | – | CN(C)CCNC(=O)c1ccc(NC2CC3(CCN(c4ncnc5sc(CC(F)(F)F)cc45)C3)C2)cc1 (racemic) [Compound 73]
